# Reference: patent US10537531B2, “Casein coated drug-loaded iron oxide nanoparticles” (Emory University, priority 2014, dated 2020)
# Test system: Caco-2 cells
# Assay: Uptake by Caco-2 cell monolayer (fluorescence microscopy of DOX)
# Format: cell-based
# Conditions: Caco-2 monolayer, 17.2 μm, 10 min incubation
# Procedure: To investigate the cellular uptake of the released DOX from CN-DOX-IO by the small intestine in vitro, the monolayer of Caco-2 cells was incubated with CN-DOX-IO at a dosage of 17.2 μm for different lengths of time (10, 30 and 60 min). For comparison, cells incubated with DOX-IO and DOX were examined as controls. The intracellular accumulation of DOX was examined by the fluorescent microscope utilizing the fluorescence of DOX.
smiles,measurement,value
"COc1cccc2c1C(=O)c1c(O)c3c(c(O)c1C2=O)C[C@@](O)(C(=O)CO)C[C@@H]3O[C@H]1C[C@H](N)[C@H](O)[C@H](C)O1 [free DOX, doxorubicin]",intracellular localisation of DOX fluorescence signal,observed in the nucleus
